Experiments:
[1] = tested on: Daudi lymphoma cells; assay: chronic exposure of Daudi lymphoma cells to acetaldehyde in tissue culture; type: cell-based
Experimental: The effect of acetaldehyde on Daudi lymphoma cells was investigated. Chronic exposure to acetaldehyde of Daudi lymphoma cells in tissue culture was investigated with the media and acetaldehyde replaced every 24 hours, with the lids either tight closed or slightly open (the norm for tissue culture).
B. Repeat method as above changing media and replacing acetaldehyde every 24 hours.
Results are shown as the number of cells×10^4 remaining viable at each time point. (Days 0-6)

[2] = in vitro acetaldehyde toxicity assay; type: cell-based; conditions: human, Jurkat cells; higher concentrations (500 uM and 1 mM), day 3, FIG. 1; read-out: viable cell numbers as % of starting number
Experimental: (§1) Standard tissue culture techniques were used to maintain Hela, Daudi, Jurkat, CMT-64 cells in flasks in DMEM+10% FCS in a 37° C. incubator.
(§2) Cell lines subcloned into 25-cm^2 flasks and incubated in media containing dilutions of acetaldehyde, cisplatin or both. Flasks remained sealed during incubation and the media and acetaldehyde/cisplatin were replaced daily. Viable cell counts were made using Trypan blue exclusion and a standard haemocytometer.

[3] = tested on: Hela; assay: in vitro acetaldehyde toxicity assay; type: cell-based; conditions: 250 uM acetaldehyde
Experimental: as §1, §2

[4] = tested on: Jurkat; assay: in vitro acetaldehyde toxicity assay; type: cell-based
Experimental: as §1, §2

[5] = tested on: DNA; conditions: cited from earlier work

Question: With `CC=O` [acetaldehyde] as the molecule, how does the “Numbers of viable cells” value ([1]; 100 μM closed, 4S hr) read?
Answer: 280000 mL⁻¹

Question: And the “Numbers of viable cells” value ([1]; 100 μM closed, 22 hr)?
Answer: 230000 mL⁻¹

Question: And the “Numbers of viable cells” value ([1]; 100 μM closed, 68 hr)?
Answer: 370000 mL⁻¹

Question: What about the “Numbers of viable cells” value ([1]; 100 μM open, 22 hr) of the same molecule?
Answer: 260000 mL⁻¹

Question: And the “Numbers of viable cells” value ([1]; 100 μM open, 68 hr)?
Answer: 510000 mL⁻¹

Question: And the cell killing ([1]; 100 μM, 6 days exposure)?
Answer: high levels of cell death

Question: What about the cell killing ([1]; 100 μM, by 68 hours) of the same molecule?
Answer: no cell death but some inhibition of the rate of growth

Question: And the “number of cells remaining viable” value ([1]; 100 μM, day 1)?
Answer: 25 ×10^4

Question: And the “number of cells remaining viable” value ([1]; 100 μM, day 2)?
Answer: 28 ×10^4

Question: What about the “number of cells remaining viable” value ([1]; 100 μM, day 3) of the same molecule?
Answer: 32 ×10^4

Question: What about the “number of cells remaining viable” value ([1]; 100 μM, day 4) of the same molecule?
Answer: 26 ×10^4

Question: What about the “number of cells remaining viable” value ([1]; 100 μM, day 5) of the same molecule?
Answer: 19 ×10^4

Question: What about the “number of cells remaining viable” value ([1]; 100 μM, day 6) of the same molecule?
Answer: 2 (two) ×10^4

Question: What about the “number of cells remaining viable” value ([1]; 250 μM, day 1) of the same molecule?
Answer: 31 ×10^4

Question: And the “number of cells remaining viable” value ([1]; 250 μM, day 2)?
Answer: 25 ×10^4

Question: And the “number of cells remaining viable” value ([1]; 250 μM, day 3)?
Answer: 14 ×10^4

Question: And the “number of cells remaining viable” value ([1]; 250 μM, day 4)?
Answer: 13 ×10^4

Question: What about the “number of cells remaining viable” value ([1]; 250 μM, day 5) of the same molecule?
Answer: 0 ×10^4

Question: And the cell killing ([1]; 500 μM and above, 3-4 days exposure)?
Answer: high levels of cell death

Question: And the “Numbers of viable cells” value ([1]; 500 μM closed, 4S hr)?
Answer: 180000 mL⁻¹

Question: And the “Numbers of viable cells” value ([1]; 500 μM closed, 22 hr)?
Answer: 200000 mL⁻¹

Question: What about the “Numbers of viable cells” value ([1]; 500 μM closed, 68 hr) of the same molecule?
Answer: 40000 mL⁻¹

Question: And the “Numbers of viable cells” value ([1]; 500 μM open, 4S hr)?
Answer: 210000 mL⁻¹

Question: What about the “Numbers of viable cells” value ([1]; 500 μM open, 22 hr) of the same molecule?
Answer: 220000 mL⁻¹

Question: And the “Numbers of viable cells” value ([1]; 500 μM open, 68 hr)?
Answer: 40000 mL⁻¹

Question: And the “number of cells remaining viable” value ([1]; 500 μM, day 1)?
Answer: 31 ×10^4

Question: And the “number of cells remaining viable” value ([1]; 500 μM, day 2)?
Answer: 16 ×10^4

Question: What about the “number of cells remaining viable” value ([1]; 500 μM, day 3) of the same molecule?
Answer: 11 ×10^4

Question: What about the “number of cells remaining viable” value ([1]; 500 μM, day 4) of the same molecule?
Answer: 3 ×10^4

Question: What about the “number of cells remaining viable” value ([1]; 500 μM, day 5) of the same molecule?
Answer: 0 ×10^4

Question: What about the cell killing ([1]; 500 μM, within 3 days) of the same molecule?
Answer: nearly all the cells are dead

Question: And the “number of cells remaining viable” value ([1]; 750 μM, day 1)?
Answer: 28 ×10^4

Question: What about the “number of cells remaining viable” value ([1]; 750 μM, day 2) of the same molecule?
Answer: 18 ×10^4

Question: What about the “number of cells remaining viable” value ([1]; 750 μM, day 3) of the same molecule?
Answer: 5 ×10^4

Question: And the “number of cells remaining viable” value ([1]; 750 μM, day 4)?
Answer: 2 ×10^4

Question: And the “number of cells remaining viable” value ([1]; 750 μM, day 5)?
Answer: 0 ×10^4

Question: What about the “Numbers of viable cells” value ([1]; 1000 μM closed, 4S hr) of the same molecule?
Answer: 30000 mL⁻¹

Question: What about the “Numbers of viable cells” value ([1]; 1000 μM closed, 22 hr) of the same molecule?
Answer: 140000 mL⁻¹

Question: And the “Numbers of viable cells” value ([1]; 1000 μM closed, 68 hr)?
Answer: 0 mL⁻¹

Question: What about the “Numbers of viable cells” value ([1]; 1000 μM open, 4S hr) of the same molecule?
Answer: 80000 mL⁻¹

Question: What about the “Numbers of viable cells” value ([1]; 1000 μM open, 22 hr) of the same molecule?
Answer: 180000 mL⁻¹

Question: What about the “Numbers of viable cells” value ([1]; 1000 μM open, 68 hr) of the same molecule?
Answer: 20000 mL⁻¹

Question: And the cell killing ([1]; 1000 μM, within 3 days)?
Answer: kill all the cells

Question: And the viability at 3 days [2]?
Answer: 7%

Question: And the effect on proliferation [3]?
Answer: reduction in the rate of proliferation

Question: What about the effect on proliferation ([4]; 250 uM acetaldehyde) of the same molecule?
Answer: reduction in the rate of proliferation

Question: What about the viable cells ([4]; day 4, FIG. 1) of the same molecule?
Answer: no Jurkat cells viable

Question: And the “concentration that is toxic and produces irreparable DNA damage” value [5]?
Answer: 1.56 mM
